Results on 15 compounds are retold here after patent publication US7122529B2, “Compounds that release nitric oxide at controlled rates upon photolysis” (The Johns Hopkins University, priority 2001, dated 2006).

The structures appear in SMILES notation. Marks after values point to notes of the source that are not given here.

What all share (assay type): physicochemical
Data set [1] in a line: Rate of NO release upon photolysis compared with thermal decay of 1 and 20. Conditions: for rate of photochemical release of NO versus thermal decomposition of 1 and 20: 10 seconds photolysis, Xenon arc lamp long-pass 324 nm filter, 10 mM phosphate and acetate buffers. The method, then:
This example describes the general procedure for the determination of the rate of NO release from compounds 6 and 9 upon photolysis. Stock solutions of compounds 6 and 9 were prepared to be 100 μM in acetonitrile, and of these 15 μL aliquots were diluted into to […] of aqueous solutions at the appropriate pH (10 mM phosphate and acetate buffers). The probe was allowed to equilibrate in the sample solution before 10 seconds of photolysis using a Xenon arc lamp with a long-pass 324 nm filter. The rate of NO release was then monitored over the appropriate time span. For comparison, the thermal decay of both compounds 1 and 20 were recorded under the same conditions as those of the photochemical experiments.
As shown, this pH dependence follows the same pH dependence for the release from authentic samples of diazeniumdiolate 1.

Data set [2] is described as follows: Electrochemical quantification of NO / diazeniumdiolate released upon photolysis of O2-benzyl diazeniumdiolates. On the procedure: Analysis of the above described organic products produced following photolysis of the compounds was studied in argon and oxygen-saturated 90%–99% aqueous acetonitrile. Quantification of NO released upon photolysis was performed electrochemically with an inNO Nitric Oxide Measuring System using an amiNO-2000 probe (Innovative Instruments Inc., Tampa, Fla.). The amiNO-2000 probe was calibrated using ascorbic acid/sodium nitrite before and after NO measurements were conducted. In order to differentiate NO production arising from diazeniumdiolate from non-diazeniumdiolate derived NO, the dependence of diazeniumdiolate decomposition rate on pH was utilized. […] Aqueous solutions at pH 11 of the compounds were irradiated and then analyzed for NO. Any NO detected under these conditions must arise from a non-diazeniumdiolate pathway. For all compounds examined the amount of NO formed from such a pathway was negligible. To liberate NO associated with the photoreleased diazeniumdiolate, solutions were acidified with 1.0 M H2SO4 to a pH of between 2–3. In each case, the yield of NO was determined from a series of measurements following photolysis to a range of percent conversions. […] NO yields determined from these experiment along with the observation that compound 1 dissociates to give 1.5 equivalents of NO were used to derive yields of photoreleased diazeniumdiolates from the compounds studied.
Since Path B is favored with the addition of strong π-donating meta substituents, the dihydroxybenzyl derivative of compound 3, n=0, Y=H, R1=R3=R5=H, R2=R4=OH (O^2-3,5-dihydroxybenzyl substituted diazeniumdiolate) was studied in further detail. Consistent with the expected large effect of oxyanionic meta substitution, when compound 3, n=0, Y=H, R1=R3=R5=H, R2=R4=OH is irradiated (Rayonet, 300 nm) in an aqueous solution of pH 11.2 (containing 1% acetonitrile) to 5–35% conversion, the amount of NO detected corresponded to a yield of photoreleased diazeniumdiolate compound 1 of approximately 92%. A comparison of selected results observed with O^2-substituted diazeniumdiolate derivatives having the backbone of compound 3 is shown in FIG. 1. After photolysis of the compound (t=0 sec) there is no nitric oxide production.

Data set [3] in a line: Quantum yields of photolysis of compounds 2 and 3 (actinometry).
The nature of data set [4]: Diazeniumdiolate / NO released upon photolysis of compounds 6 and 9 (electrochemical NO probe). Conditions: 0.498 μM, 100% conversion; for % NO: Xenon arc lamp with long-pass 324 nm filter, NO liberated by acidification; for % Diazeniumdiolate: pH 12.2, Xenon arc lamp with long-pass 324 nm filter, derived with 1.5 / 1.8 eq NO. The method, then: This example describes a general procedure for the determination of diazeniumdiolate released upon photolysis of compounds 6 and 9. The amiNO-700 probe was calibrated using ascorbic acid/sodium nitrite before and after NO measurements were recorded. Calibration curves were prepared in order to relate current (detected by the instrument) with concentration of NO. Stock solutions of compounds 6 and 9 were prepared to be 100 μM in acetonitrile, and of these 15 μL aliquots were diluted into to 3 mL of a pH 12.2 aqueous solution. The resulting 0.498 μM solutions were photolyzed with a Xenon arc lamp and a long-pass 324 nm filter for lengths of time appropriate to reach 100% conversion (6–7 minutes for most compounds at this concentration). Under these basic conditions any diazeniumdiolate generated photochemically is stable, and neither sodium-1-(N,N-diethylamino)-1-diazen-1-ium-1,2-diolate (compound 1) or sodium-1-(piperidin-1-yl)-diazen-1-ium-1,2-diolate (compound 20) absorbs at wavelengths above 324 nm. No NO was measured electrochemically at this pH, indicating there are no photochemical paths that lead directly to NO. The NO associated with the photochemically generated diazeniumdiolate was liberated by the addition of 10 μL of 1.0 M sulfuric acid (final solution pH's were typically 2–3. Using the calibration curve and the fact that the amount of NO released upon thermal decomposition of compounds 1 and 20 was calculated to be 1.5 and 1.8 eq. respectively, the absolute percentage of diazeniumdiolate generated upon photolysis of compounds 6 and 9 was determined. FIG. 2 depicts the amount of nitric oxide produced upon photolysis from a selection of 1-methylnaphthyl and 2-methylnaphthyl-O^2-substituted diazeniumdiolates having a backbone of compounds 6 and 9.
Compounds 6 and 9 are soluble in 99% aqueous acetonitrile up to 20 μM and are thermally stable indefinitely at pH 4–11, 25° C. at this concentration. Analysis of the products following photolysis (Rayonet, 300 or 350 nm, Xenon arc lamp with a long-pass 324 nm filter) of compounds 6 and 9 in both argon- and oxygen-saturated 99% aqueous acetonitrile is summarized in Table 2 below. Quantification of NO released upon photolysis was performed electrochemically with an inNO Nitric Oxide Measuring System using an ami-700 probe (Innovative Instruments Inc., Tampa, Fla.).

Data set [5] can be described thus: Quantum yields of photolysis of compounds 6 and 9. The conditions noted are these: ~20 μM in 90–95% aqueous acetonitrile, below 40% conversion.
A short description of data set [6]: Lifespan of diazeniumdiolate 1 as a function of pH. Conditions: room temperature.
Data set [7] in a line: Absolute amount of NO released from thermal decomposition of diazeniumdiolates 1 and 20. Conditions: 0.15–0.66 μM in aqueous solution pH 12.2, acidified with 1.0 M sulfuric acid. On the procedure: Determination of the absolute amount of NO released from the thermal decomposition of sodium-1-(N,N-diethylamino)-diazen-1-ium-1,2-diolate compound 1, and sodium-1-(piperidin-1-yl)-diazen-1-ium-1,2-diolate compound 20.
Stock solutions of both compounds 1 and 20 were prepared to be 100 μM in aqueous solution at pH=12.2. A series of μL aliquots of the stock solution were diluted into 3 mL of aqueous solution at pH=12.2 resulting in an array of concentrations from 0.15–0.66 μM. The probe was allowed to equilibrate in the sample solutions before the addition of 10 μL of 1.0 M sulfuric acid. The final concentration of NO in solution after complete decomposition was determined by the calibration curve, and a linear plot of NO released vs. initial concentration was obtained. By this method it was determined that compounds 1 and 20 release 1.5 and 1.8 eq. of NO respectively.

The mark [8] stands for this setting: H2O/CH3CN 99/1, photolysis 300 nm, based on percent reactant converted, NO measured and 1.5 eq NO per diazeniumdiolate 1, estimated error ±5%.
Where [9] appears, read: solvent H2O/CH3CN 0/100, photolysis 254 nm.
Where [10] appears, read: solvent H2O/CH3CN 0/100, photolysis 300 nm.
Where [11] appears, read: solvent H2O/CH3CN 99/1, photolysis 254 nm.
Where [12] appears, read: solvent H2O/CH3CN 99/1, photolysis 300 nm.

In the case of `COc1cc2ccccc2cc1/C=C/CON=[N+]([O-])N1CCCCC1`, in data set [1], the “rate of photochemical release of NO versus thermal decomposition of 1 and 20” value is recorded as “consistent with the known thermal decays”.

As for `CCN(CC)[N+]([O-])=NOCc1cccc(OC)c1` [3 (R2 = MeO, R4 = H), O^2-(3-methoxybenzyl)-1-(N,N-diethylamino)-diazen-1-ium-1,2-diolate], the “% Diazeniumdiolate” value in data set [2] (setting [8]) is 6%.

For the compound `CCN(CC)[N+]([O-])=NOCc1cccc(N(C)C)c1` [3 (R2 = NMe2, R4 = H), O^2-(3-dimethylaminobenzyl)-1-(N,N-diethylamino)-diazen-1-ium-1,2-diolate], the “Quantum Yield” value in data set [3] (setting [9]) amounted to 0.60; in data set [3] (setting [10]), 0.17; in data set [3] (setting [11]), 0.25; in data set [3] (setting [12]) it was 0.04. Also, the “% Diazeniumdiolate” value in data set [2] (setting [8]) is given as 35%.

Consider `CCN(CC)[N+]([O-])=NOCc1cc(OC)cc(OC)c1` [3 (R2 = R4 = MeO), O^2-(3,5-dimethoxybenzyl)-1-(N,N-diethylamino)-diazen-1-ium-1,2-diolate], for which the “Quantum Yield” value in data set [3] (setting [9]) came to 0.35; in data set [3] (setting [11]), 0.17. Moreover, in data set [2] (setting [8]), the “% Diazeniumdiolate” value is on record as 10%.

`CCN(CC)[N+]([O-])=NOCc1cc(N(C)C)cc(N(C)C)c1` [3 (R2 = R4 = NMe2), O^2-(3,5-bis-dimethylaminobenzyl)-1-(N,N-diethylamino)-diazen-1-ium-1,2-diolate]: the “Quantum Yield” value worked out at 0.53 in data set [3] (setting [9]), 0.18 in data set [3] (setting [10]), 0.26 in data set [3] (setting [11]) and 0.05 in data set [3] (setting [12]). The “% Diazeniumdiolate” value in data set [2] (setting [8]) is recorded as 47%.

`CCN(CC)[N+]([O-])=NOCc1cc(O)cc(O)c1` [3 (R2 = R4 = OH), O^2-(3,5-dihydroxybenzyl)-1-(N,N-diethylamino)-diazen-1-ium-1,2-diolate]: in data set [3] (setting [12]), the “Quantum Yield” value is recorded as 0.87. Moreover, in data set [2] (H2O/CH3CN 99/1, photolysis 300 nm at pH 11.2, 5–35% conversion), the “% Diazeniumdiolate” value is listed as 92^d %.

`CCN(CC)[N+]([O-])=NOCc1cccc2ccccc12` [6 (n = 0, Y = R1–R7 = H), O^2-(1-naphthylmethyl)-1-(N,N-diethylamino)-1-diazen-1-ium-1,2-diolate]: in data set [4], the “% NO” value worked out at 1.5% and the “% Diazeniumdiolate” value is 1%. The “Quantum Yield” value in data set [5] (300 nm (rayonet reactor)) is 0.01^a.

For the compound `CCN(CC)[N+]([O-])=NOC/C=C/c1cccc2ccccc12` [6 (n = 1, Y = R1–R7 = H)], in data set [4], the “% NO” value worked out at 37.5% and the “% Diazeniumdiolate” value is 25%. For the same compound, the “Quantum Yield” value in data set [5] (300 nm (rayonet reactor)) is reported as 0.12^a.

On to `CCN(CC)[N+]([O-])=NOCc1cc2ccccc2cc1OC` [9 (n = 0, Y = R1, R3–R7 = H, R2 = OMe), O^2-(3-methoxy-2-naphthylmethyl)-1-(N,N-diethylamino)-diazen-1-ium-1,2-diolate], for which, in data set [4], the “% NO” value is 30% and the “% Diazeniumdiolate” value amounted to 20%. Further, in data set [4] (listed as 9 (where n=0, Y=R1, R3–R7=H, R2=OMe, X=diethylamino)), the “% Diazeniumdiolate” value was 50%. In data set [5] (300 nm (rayonet reactor)), the “Quantum Yield” value is 0.02^a.

Take `CCN(CC)/[N+]([O-])=N/[O-].[Na+]` [Compound 1, sodium-1-(N,N-diethylamino)-diazen-1-ium-1,2-diolate]: the lifespan entry in data set [6] (pH 3) is on record as “several seconds”; in data set [6] (pH 11), “several hours”. Also, the “NO released upon thermal decomposition” value in data set [7] amounted to 1.5 eq. In data set [1] (FIG. 5, varied pH), the “rate of release of nitric oxide from photochemically generated diazeniumdiolate” value is reported as “pH dependent”.

On to `[Na+].[O-]/N=[N+](\[O-])N1CCCCC1` [Compound 20, sodium-1-(piperidin-1-yl)-diazen-1-ium-1,2-diolate], for which the “NO released upon thermal decomposition” value in data set [7] amounted to 1.8 eq.

With `CCN(CC)[N+]([O-])=NOC/C=C/c1cc2ccccc2cc1OC` [O^2-(3-(3-methoxy-2-naphthyl)-E-2-propenyl)-1-(N,N-diethylamino)-diazen-1-ium-1,2-diolate], in data set [4], the “% Diazeniumdiolate” value is 50%. Moreover, the “rate of photochemical release of NO versus thermal decomposition of 1 and 20” value in data set [1] is listed as “consistent with the known thermal decays”.

Regarding `CCN(CC)[N+]([O-])=NOC/C=C/c1cccc2c(OC)ccc(OC)c12` [O^2-(3-(5,8-dimethoxy-1-naphthyl)-E-2-propenyl)-1-(N,N-diethylamino)-diazenen-1-ium-1,2-diolate], in data set [4], the “% NO” value is on record as 143% and the “% Diazeniumdiolate” value amounted to 95%. For the same compound, in data set [5] (355 nm (ND:YAG laser)), the “Quantum Yield” value is 0.66^b.

As to `CCN(CC)[N+]([O-])=NOCc1cccc2c(OC)ccc(OC)c12` [O^2-(5,8-dimethoxy-1-naphthylmethyl)-1-(N,N-diethylamino)-diazen-1-ium-1,2-diolate], in data set [4], the “% NO” value is 60% and the “% Diazeniumdiolate” value stood at 40%. For the same compound, the “Quantum Yield” value in data set [5] (355 nm (ND:YAG laser)) was 0.12^b.

As to `CCN(CC)[N+]([O-])=NOCc1ccc2c(OC)ccc(OC)c2c1` [O^2-(5,8-dimethoxy-2-naphthylmethyl)-1-(N,N-diethylamino)-diazen-1-ium-1,2-diolate], in data set [4], the “% NO” value came out at 51% and the “% Diazeniumdiolate” value worked out at 34%. Moreover, the “Quantum Yield” value in data set [5] (355 nm (ND:YAG laser)) is listed as 0.05^b.
